Measured values reported in publication PMC8795197, “Safety and activity of WX-0593 (Iruplinalkib) in patients with ALK- or ROS1-rearranged advanced non-small cell lung cancer: a phase 1 dose-escalation and dose-expansion trial” (Signal Transduction and Targeted Therapy, 2022).
Where two headings read alike, the source gives them in different places.

Assays:
Ba/F3 CD74-ROS1-S1986F = test: Growth of transfected Ba/F3 cells (CellTiter-Glo, 3 days); assay type: cell-based; conditions: Mus musculus, BaF3
Procedure: (§1) Harvest cells during the logarithmic growth period and count cells using blood counting chamber. Adjust cell concentration with culture medium. Add 90µl cell suspensions to two 96-well plates to the final cell density as described before. Incubate the plate overnight in humidified incubator at 37℃ with 5% CO2. Dispense 10µl drug solution (10×) to each well (triplicate for each concentration), and the DMSO final concentration in culture medium is 0.1% [v/v]. Culture the plates for 3 days.On Day 3, Read luminescent using Multi Label Reader. The software of GraphPad Prism was used to calculate IC50. The graphical curves were fitted using a nonlinear regression model with a sigmoidal dose response.

Ba/F3 CD74-ROS1-D2033N = test: as above; assay type: cell-based; conditions: Mus musculus, BaF3
Procedure: as §1

Ba/F3 CD74-ROS1-S1986Y = test: as above; assay type: cell-based; conditions: Mus musculus, BaF3
Procedure: as §1

Ba/F3 CD74-ROS1-L1951R = test: as above; assay type: cell-based; conditions: Mus musculus, BaF3
Procedure: as §1

Ba/F3 (EML4-ALK-WT) = test: Cell proliferation inhibition assay; assay type: cell-based
Ba/F3 (EML4-ALK-C1156Y) = test: Cell proliferation inhibition assay; assay type: cell-based
[1] = system: NCI-H1975 (EGFR mutant L858R/T790M); test: Cell proliferation inhibition assay; assay type: cell-based
[2] = system: 27 non-target kinases (MAP4K4 ... INSR, EGFR wild type); test: Inhibitory study of 27 non-target kinases; assay type: biochemical; conditions: except for EGFR wild type
LU-01-0319R NSCLC PDX = test: PDX model resistant to crizotinib; assay type: in vivo; conditions: WX-0593 2.5, 5, 10 mg/kg; ceritinib 10/20 mg/kg; brigatinib 10 mg/kg
Ba/F3 (EML4-ALK-L1196M) = test: Cell proliferation inhibition assay; assay type: cell-based
Ba/F3 ALK-G1202R = test: Growth of transfected Ba/F3 cells (CellTiter-Glo, 3 days); assay type: cell-based; conditions: Mus musculus, BaF3
Procedure: as §1, with “days. On” for “days.On”

Ba/F3 ALK-L1152R = test: as above; assay type: cell-based; conditions: Mus musculus, BaF3
Procedure: as §1, with “days. On” for “days.On”

Ba/F3 ALK-C1156Y = test: as above; assay type: cell-based; conditions: Mus musculus, BaF3
Procedure: as §1, with “days. On” for “days.On”

Ba/F3 ALK-I1171N = test: as above; assay type: cell-based; conditions: Mus musculus, BaF3
Procedure: as §1, with “days. On” for “days.On”

Ba/F3 ALK-L1152P = test: as above; assay type: cell-based; conditions: Mus musculus, BaF3
Procedure: as §1, with “days. On” for “days.On”

Ba/F3 ALK-I1171S = test: as above; assay type: cell-based; conditions: Mus musculus, BaF3, ALK-I1171S
Procedure: as §1, with “days. On” for “days.On”

Ba/F3 ALK-L1196M = test: as above; assay type: cell-based; conditions: Mus musculus, BaF3
Procedure: as §1, with “days. On” for “days.On”

Ba/F3 ALK-I1171T = test: as above; assay type: cell-based; conditions: Mus musculus, BaF3
Procedure: as §1, with “days. On” for “days.On”

Ba/F3 ALK-WT = test: as above; assay type: cell-based; conditions: Mus musculus, BaF3
Procedure: as §1, with “days. On” for “days.On”

Ba/F3 ALK-G1202del = test: as above; assay type: cell-based; conditions: Mus musculus, BaF3
Procedure: as §1, with “days. On” for “days.On”

Ba/F3 ALK-V1180L = test: as above; assay type: cell-based; conditions: Mus musculus, BaF3
Procedure: as §1, with “days. On” for “days.On”

Ba/F3 ALK-G1269A = test: as above; assay type: cell-based; conditions: Mus musculus, BaF3
Procedure: as §1, with “days. On” for “days.On”

Ba/F3 ALK-F1174L = test: as above; assay type: cell-based; conditions: Mus musculus, BaF3
Procedure: as §1, with “days. On” for “days.On”

Ba/F3 ALK-T1151Tins = test: as above; assay type: cell-based; conditions: Mus musculus, BaF3
Procedure: as §1, with “days. On” for “days.On”

Ba/F3 ALK-F1174C = test: as above; assay type: cell-based; conditions: Mus musculus, BaF3, ALK-F1174C
Procedure: as §1, with “days. On” for “days.On”

[3] = system: Ba/F3 SLC34A2-ROS1-G2032R; test: as above; assay type: cell-based; conditions: Mus musculus, BaF3
Procedure: as §1

Ba/F3 SLC34A2-ROS1 = test: as above; assay type: cell-based; conditions: Mus musculus, BaF3
Procedure: as §1

[4] = system: Ba/F3 SLC34A2-ROS1-L2026M; test: as above; assay type: cell-based; conditions: Mus musculus, BaF3
Procedure: as §1

Karpas299 (NPM-ALK) = test: Cell proliferation inhibition assay; assay type: cell-based
[5] = system: patients treated with ALK TKIs; conditions: cited from earlier work
[6] = system: NSCLC patients with ALK or ROS1 rearrangement; conditions: ALK-rearranged patients; cited from earlier work
Ba/F3 ALK-F1174V = test: Growth of transfected Ba/F3 cells (CellTiter-Glo, 3 days); assay type: cell-based; conditions: Mus musculus, BaF3; ALK-F1174V; read-out: IC50
Procedure: as §1, with “days. On” for “days.On”

[7] = Grades 1 and 2 adverse reactions
[8] = serious adverse events in more than 2 patients

`CCc1cc2c(cc1N1CCC(N3CCOCC3)CC1)C(C)(C)c1[nH]c3cc(C#N)ccc3c1C2=O` [Alectinib] showed an IC50 (Ba/F3 CD74-ROS1-S1986F) of 10000 nM, an IC50 (Ba/F3 CD74-ROS1-D2033N) of 5070 nM and an IC50 (Ba/F3 CD74-ROS1-S1986Y) of 10000 nM. For the same compound, the IC50 (Ba/F3 CD74-ROS1-L1951R) was 5410 nM.
With `COc1cc(N2CCC(N3CCN(C)CC3)CC2)ccc1Nc1ncc(Cl)c(Nc2ccccc2P(C)(C)=O)n1` [Brigatinib] the growth inhibition (Ba/F3 (EML4-ALK-WT)) was “significantly inhibits the growth”, the growth inhibition (Ba/F3 (EML4-ALK-C1156Y)) was “significantly inhibits the growth” and the growth inhibition [1] was “somewhat inhibits the growth”. For the same compound, the “inhibitory activity against non-target kinases” value [2] was “no significant inhibitory activity”, the anti-tumor effect (LU-01-0319R NSCLC PDX) was “significant effects against crizotinib-induced resistance” and the growth inhibition (Ba/F3 (EML4-ALK-L1196M)) was “significantly inhibits the growth”. It also gave an IC50 (Ba/F3 ALK-G1202R) of 340 nM, an IC50 (Ba/F3 ALK-L1152R) of 10.4 nM and an IC50 (Ba/F3 ALK-C1156Y) of 39 nM. The IC50 (Ba/F3 ALK-I1171N) was 35 nM, the IC50 (Ba/F3 ALK-L1152P) was 1.5 nM and the IC50 (Ba/F3 ALK-I1171S; first listing (r12)) was 93 nM. It also gave an IC50 (Ba/F3 ALK-I1171S; second listing (r19)) of 40 nM, an IC50 (Ba/F3 ALK-L1196M) of 31 nM and an IC50 (Ba/F3 ALK-I1171T) of 18.9 nM. For the same compound, the IC50 (Ba/F3 ALK-WT) was 25 nM, the IC50 (Ba/F3 ALK-G1202del) was 1000 nM and the IC50 (Ba/F3 ALK-V1180L) was 10.4 nM. For the same compound, the IC50 (Ba/F3 ALK-G1269A) was 31 nM, the IC50 (Ba/F3 ALK-F1174L) was 31 nM and the IC50 (Ba/F3 ALK-T1151Tins) was 35 nM. The IC50 (Ba/F3 ALK-F1174C; first listing (r10)) was 97 nM, the IC50 (Ba/F3 ALK-F1174C; second listing (r15)) was 51.6 nM and the IC50 (Ba/F3 CD74-ROS1-S1986F) was 20.2 nM. It also gave an IC50 [3] of 846 nM, an IC50 (Ba/F3 CD74-ROS1-D2033N) of 36.5 nM and an IC50 (Ba/F3 SLC34A2-ROS1) of 22 nM. It also gave an IC50 (Ba/F3 CD74-ROS1-S1986Y) of 12.5 nM, an IC50 [4] of 48 nM and an IC50 (Ba/F3 CD74-ROS1-L1951R) of 775 nM. For the same compound, the growth inhibition (Karpas299 (NPM-ALK)) was “significantly inhibits the growth”, the coughing [5, 7] was 26% and the diarrhea [5, 7] was 36%. For the same compound, the fatigue [5, 7] was 36%, the headache [5, 7] was 26% and the nausea [5, 7] was 45%. For the same compound, the “diarrhea, % of patients” value [5] was 41%, the “dose reduction due to TEAEs, % of patients” value [5] was 14% and the “DLTs in the tolerability study” value ([5]; one Grade 3 ALT increased, one Grade 4 dyspnea and Grade 3 hypoxia) was “Two”. The coughing [5, 8] was 4%, the dyspnea [5, 8] was 4% and the hypoxia [5, 8] was 4%. For the same compound, the pleural effusion [5, 8] was 4% and the pneumonia [5, 8] was 7%.
In the case of `Cc1cc(Nc2ncc(Cl)c(Nc3ccccc3S(=O)(=O)C(C)C)n2)c(OC(C)C)cc1C1CCNCC1` [Ceritinib], the ORR [6] is listed as 58%, the anti-tumor effect (LU-01-0319R NSCLC PDX) is listed as “significant effects against crizotinib-induced resistance” and the IC50 (Ba/F3 ALK-G1202R; ALK-G1202R, read-out: IC50) is listed as 502 nM. The IC50 (Ba/F3 ALK-L1152R; ALK-L1152R, read-out: IC50) was 116 nM, the IC50 (Ba/F3 ALK-C1156Y; ALK-C1156Y, read-out: IC50) was 87 nM and the IC50 (Ba/F3 ALK-I1171N; ALK-I1171N, read-out: IC50) was 41.8 nM. The IC50 (Ba/F3 ALK-L1152P; ALK-L1152P, read-out: IC50) was 71.5 nM, the IC50 (Ba/F3 ALK-I1171S; first listing (r12), read-out: IC50) was 97 nM and the IC50 (Ba/F3 ALK-I1171S; second listing (r19), read-out: IC50) was 45.8 nM. It also gave an IC50 (Ba/F3 ALK-L1196M; ALK-L1196M, read-out: IC50) of 33 nM, an IC50 (Ba/F3 ALK-I1171T; ALK-I1171T, read-out: IC50) of 27.8 nM and an IC50 (Ba/F3 ALK-WT; ALK-WT, read-out: IC50) of 13 nM. For the same compound, the IC50 (Ba/F3 ALK-F1174V) was 53.7 nM, the IC50 (Ba/F3 ALK-G1202del; ALK-G1202del, read-out: IC50) was 925 nM and the IC50 (Ba/F3 ALK-V1180L; ALK-V1180L, read-out: IC50) was 15.6 nM. The IC50 (Ba/F3 ALK-G1269A; ALK-G1269A, read-out: IC50) was 16 nM, the IC50 (Ba/F3 ALK-F1174L; ALK-F1174L, read-out: IC50) was 21 nM and the IC50 (Ba/F3 ALK-T1151Tins; ALK-T1151Tins, read-out: IC50) was 96 nM. For the same compound, the IC50 (Ba/F3 ALK-F1174C; first listing (r10), read-out: IC50) was 95 nM, the IC50 (Ba/F3 ALK-F1174C; second listing (r15), read-out: IC50) was 79.5 nM and the IC50 (Ba/F3 CD74-ROS1-S1986F) was 49.6 nM. The IC50 [3] was 1100 nM, the IC50 (Ba/F3 CD74-ROS1-D2033N) was 159 nM and the IC50 (Ba/F3 SLC34A2-ROS1) was 14 nM. It also gave an IC50 (Ba/F3 CD74-ROS1-S1986Y) of 32.5 nM, an IC50 [4] of 54 nM and an IC50 (Ba/F3 CD74-ROS1-L1951R) of 642 nM. The ALT increased [5, 7] was 35%, the diarrhea [5, 7] was 75% and the fatigue [5, 7] was 47%. The nausea [5, 7] was 82%, the vomiting [5, 7] was 65% and the “diarrhea, % of patients” value [5] was 75%. The “dose reduction due to TEAEs, % of patients” value [5] was 62%.
